Test results from US9028845B2, “Chimeric immunomodulatory compounds and methods of using the same-IV” (Dynavax Technologies Corporation, priority 2001, dated 2015).
No end group written: not given here.

Tested on: human PBMCs
Assay: Human PBMC cytokine response assay (IFN-γ and IFN-α in cell-free medium by ELISA), with or without cPLGA;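 on IFN-α (pg/ml) mean: 20 µg/mL compound for 24 hours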;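 on IFN-γ (pg/ml) mean: 20 µg/mL compound for 24 hours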
Type: cell-based
Conditions: for immunomodulatory activity (IFN-γ / IFN-α secretion), in words: used alone (no cPLGA)
[1] = mean of donors 28057-28060, Table 16
[2] = mean of donors 110, 112, 119, 120, Table 14
[3] = Table 24, mean of donors 28234-28237
[4] = Table 26, mean of donors 28313-28316

5′-TCGTCG-3′-(HME)15-5′-T-3′ [Compound C-14]
IFN-α (donor 28057, Table 16): 0 pg/mL
IFN-γ (donor 28057, Table 16): 3 pg/mL
IFN-α (donor 28058, Table 16): 0 pg/mL
IFN-γ (donor 28058, Table 16): 1 pg/mL
IFN-α (donor 28059, Table 16): 0 pg/mL
IFN-γ (donor 28059, Table 16): 1 pg/mL
IFN-α (donor 28060, Table 16): 0 pg/mL
IFN-γ (donor 28060, Table 16): 3 pg/mL
activity when formulated with cPLGA, in words: all had significant activity when formulated on cPLGA
IFN-α (pg/ml) mean [1]: 0 pg/mL
IFN-γ (pg/ml) mean [1]: 2 pg/mL
immunomodulatory activity (IFN-γ / IFN-α secretion), in words: None of the CICs was active when used alone

TMEA-(5′-TGACTGTGAACGTTCGAGATGA-3′)3 (SEQ ID NO: 139) (See Ex. 23) [Compound C-99]
IFN-α (donor 110, Table 14): 22 pg/mL
IFN-γ (donor 110, Table 14): 276 pg/mL
IFN-α (donor 112, Table 14): 4 pg/mL
IFN-γ (donor 112, Table 14): 12 pg/mL
IFN-α (donor 119, Table 14): 86 pg/mL
IFN-γ (donor 119, Table 14): 16 pg/mL
IFN-α (donor 120, Table 14): 2 pg/mL
IFN-γ (donor 120, Table 14): 40 pg/mL
IFN-γ induction when formulated with cPLGA, in words: induced IFN-γ only when formulated with cPLGA
IFN-α (pg/ml) mean [2]: 29 pg/mL
IFN-γ (pg/ml) mean [2]: 86 pg/mL
IFN-α induction, in words (used alone): did not induce IFN-α

5′-TCGTCG-3′-(HEG)4-5′-T-3′ [Compound C-16]
IFN-α (donor 28057, Table 16): 0 pg/mL
IFN-γ (donor 28057, Table 16): 1 pg/mL
IFN-α (donor 28058, Table 16): 0 pg/mL
IFN-γ (donor 28058, Table 16): 2 pg/mL
IFN-α (donor 28059, Table 16): 0 pg/mL
IFN-γ (donor 28059, Table 16): 0 pg/mL
IFN-α (donor 28060, Table 16): 0 pg/mL
IFN-γ (donor 28060, Table 16): 6 pg/mL
activity when formulated with cPLGA, in words: all had significant activity when formulated on cPLGA
IFN-α (pg/ml) mean [1]: 0 pg/mL
IFN-γ (pg/ml) mean [1]: 2 pg/mL
immunomodulatory activity (IFN-γ / IFN-α secretion), in words: None of the CICs was active when used alone

5′-TCGTCGA-3′-C3-5′-TCGTCGA-3′-C3-5′-TCGTCGA-3′ [Compound C-90]
IFN-α (Table 24, donor 28234): 16 pg/mL
IFN-γ (Table 24, donor 28234): 7 pg/mL
IFN-α (Table 24, donor 28235): 46 pg/mL
IFN-γ (Table 24, donor 28235): 118 pg/mL
IFN-α (Table 24, donor 28236): 117 pg/mL
IFN-γ (Table 24, donor 28236): 497 pg/mL
IFN-α (Table 24, donor 28237): 345 pg/mL
IFN-γ (Table 24, donor 28237): 1586 pg/mL
IFN-α mean [3]: 131 pg/mL
IFN-γ mean [3]: 552 pg/mL
IFN-γ induction, in words (used alone): similar

(5′-TCGACGT-3′-HEG)x-Ficoll400 (X range = 150-250, ave. 185) See example 49 (not fully specified (C-terminus); cysteine pairing not given here; also: about 185 copies attached to Ficoll400) [Compound C-137]
IFN-a (Table 26, donor 28313): 3612 pg/mL
IFN-g (Table 26, donor 28313): 1 pg/mL
IFN-a (Table 26, donor 28314): 5468 pg/mL
IFN-g (Table 26, donor 28314): 22 pg/mL
IFN-a (Table 26, donor 28315): 624 pg/mL
IFN-g (Table 26, donor 28315): 13 pg/mL
IFN-a (Table 26, donor 28316): 4000 pg/mL
IFN-g (Table 26, donor 28316): 54 pg/mL
IFN-g mean ×4 (Table 26, mean multiplied by 4): 90 pg/mL
IFN-a mean [4]: 3426 pg/mL
IFN-g mean [4]: 22 pg/mL
IFN-α induction, in words (used alone): significant stimulation of IFN-α
immunomodulatory activity (IFN-γ / IFN-α secretion), in words: striking activity in the cytokine response assays

5′-TCCATTT-3′-HEG-5′-AACGTTC-3′-HEG-5′-TGACGTT-3′ [Compound C-61]
IFN-α (Table 13, donor 28156): 3 pg/mL
IFN-γ (Table 13, donor 28156): 92 pg/mL
IFN-α (Table 13, donor 28157): 0 pg/mL
IFN-γ (Table 13, donor 28157): 179 pg/mL
IFN-α (Table 13, donor 28158): 47 pg/mL
IFN-γ (Table 13, donor 28158): 35 pg/mL
IFN-α (Table 13, donor 28159): 0 pg/mL
IFN-γ (Table 13, donor 28159): 63 pg/mL
IFN-α mean (Table 13, mean of donors): 13 pg/mL
IFN-γ mean (Table 13, mean of donors): 92 pg/mL
IFN-γ induction when formulated with cPLGA, in words: induced IFN-γ when formulated with cPLGA
